Values after ≈ are worked out from the molar mass of the structure shown.
Legend:
S. agalactiae ATCC 27956 = assay: MIC/MBC broth microdilution, S. agalactiae; assay type: cell-based, Streptococcus agalactiae; conditions: S. agalactiae
Experimental: (§1) S. aureus (ATCC 29213),S. pyogenes (ATCC 19615),Streptococcus agalactiae (ATCC 27956),Escherichia coli (ATCC 25922),Proteus vulgaris (ATCC 6896),K. pneumoniae (ATCC 700603) andP. aeruginosa (ATCC 10145) reference strains, as well asStaphylococcus cohnii, Enterococcus faecalis, Staphylococcus schleiferi, Staphylococcus intermedius and Streptococcus mutans clinical isolates, were used to test the antibacterial activity of the peptidomimetics. Bacteria were aerobically cultured for 18 h at 37 °C in plates with sterilized brain heart infusion (BHI) broth (Sigma-Aldrich, USA) media mixed with bacteriological agar (Sigma-Aldrich, USA) using the streak plate method. After 18 h, BHI broth was inoculated to 0.5 on the McFarland scale and diluted to approximately 10^5 CFU/mL. To achieve a final stock concentration of 1024 μg/mL, the peptidomimetics were dissolved in sterile water, and 5–10% of absolute ethanol or dimethyl sulfoxide (DMSO) was added. The antibacterial activities were determined by using the standard broth microdilution method of the National Committee for Clinical Laboratory Standards. The process involved adding serially diluted peptidomimetics to consecutive wells of a 96-well microtiter plate (Brand, Germany) holding media with microorganisms. The inoculated plates treated with peptides were then placed in an incubator at 37 °C for 18 h. The MIC value was determined as the lowest concentration of peptidomimetic at which there was no obvious growth (equal or more than 90% of the untreated sample). […] The lowest concentration yielding growth in no more than 3 colonies, corresponding to at least a 99.9% kill rate, was taken as MBC. Each biological replicate included control wells with the addition of water, DMSO, and ethanol as respective solvent controls. All experiments were conducted with consistent adherence to growth and sterility controls and were performed at least in technical triplicate with three biological repeats.

[1] = system: immortalized human keratinocytes (HaCaT); assay: LDH cytotoxicity test, keratinocytes; assay type: cell-based; conditions: 48 h
Experimental: (§2) In our study, we used two distinct cell types: immortalized human HaCaT keratinocytes (DKFZ, Heidelberg, Germany) and a human dermal fibroblast cell line (46BR.1N). […] Cultures were maintained in a humidified atmosphere with 5% CO2 at 37 °C in 25 cm^2 culture flasks with the medium replenished every 2 days. The condition of the cells was monitored using optical microscopy.
(§3) Cell death in immortalized human keratinocytes (HaCaT) and fibroblasts (46BR.1N) was measured by quantifying the lactate dehydrogenase (LDH) activity using a commercial kit (Roche, Switzerland). Cells were seeded in 96-well plates at a density of 5000 cells per well in DMEM high glucose medium supplemented with 10% FBS. After 24 h of incubation, the medium was replaced with serum-free medium containing various concentrations of peptidomimetics (50, 100, and 150 μg/mL). After 48 h, supernatants were collected for LDH analysis. Plate readings were taken spectrophotometrically using a 450 nm wavelength. Cell death measurements were normalized to an untreated control (0%), with 1% Triton X-100 detergent used as a positive control to induce maximum LDH release, indicating maximal cytotoxicity. Statistical significance was determined with a Mann–Whitney U test with a statistical significance p ≤ 0.05. Analysis was performed with Statistica software (Krakow, Poland) and graphs were prepared in GraphPad Prism (Boston, USA).

S. pyogenes ATCC 19615 = assay: MIC/MBC broth microdilution, S. pyogenes; assay type: cell-based, Streptococcus pyogenes; conditions: S. pyogenes
Experimental: as §1

S. schleiferi c.i. = assay: MIC/MBC broth microdilution, S. schleiferi; assay type: cell-based, Staphylococcus schleiferi
Experimental: as §1

E. coli ATCC 25922 = assay: MIC/MBC broth microdilution, E. coli; assay type: cell-based, Escherichia coli
Experimental: as §1

S. aureus ATCC 43300 = assay: MIC/MBC broth microdilution, S. aureus; assay type: cell-based, Staphylococcus aureus; conditions: S. aureus
P. vulgaris ATCC 6896 = assay: MIC/MBC broth microdilution, P. vulgaris; assay type: cell-based, Proteus vulgaris
Experimental: as §1

S. cohnii c.i. = assay: MIC/MBC broth microdilution, S. cohnii; assay type: cell-based, Staphylococcus cohnii
Experimental: as §1

P. aeruginosa ATCC 10145 = assay: MIC/MBC broth microdilution, P. aeruginosa; assay type: cell-based
Experimental: as §1

[2] = system: human dermal fibroblast cell line (46BR.1N); assay: XTT cell proliferation assay, fibroblasts; assay type: cell-based; conditions: XTT
Experimental: (§4) In our study, we used two distinct cell types: immortalized human HaCaT keratinocytes (DKFZ, Heidelberg, Germany) and a human dermal fibroblast cell line (46BR.1N). […] Cultures were maintained in a humidified atmosphere with 5% CO2 at 37 °C in 25 cm^2 culture flasks with the medium replenished every 2 days. The condition of the cells was monitored using optical microscopy. […] After 24 h of incubation, the medium was replaced with serum-free HG-DMEM containing appropriate concentrations of peptidomimetics. All solutions used in the experiments were prepared with double-distilled water or with the addition of ethanol under sterile conditions to ensure compatibility with the conditions of the bacteriological assay. For 72 h of incubation, half of the medium was replaced with fresh medium after 48 h, and cells were stimulated with peptides for a second time. The XTT cell proliferation assay was then performed according to the manufacturer’s instructions (Roche, Switzerland). Cells were treated with the peptides for either 48 or 72 h, followed by the addition of XTT reagent, and the plates were then incubated at 37 °C in a 5% CO2 environment for 4 h. Plate readings were taken using a standard plate reader at a wavelength of 490 nm (OD = 490 nm). […] Statistical significance was determined with a Mann–Whitney U test with statistical significance p ≤ 0.05. Analysis was performed with Statistica software, and graphs were prepared in GraphPad Prism.

E. faecalis c.i. = assay: MIC/MBC broth microdilution, E. faecalis; assay type: cell-based, Enterococcus faecalis
Experimental: as §1

[3] = system: K. pneumoniae ATCC 700603; assay: MIC/MBC broth microdilution, K. pneumoniae; assay type: cell-based
Experimental: as §1

[4] = system: immortalized human HaCaT keratinocytes; assay: XTT cell proliferation assay, keratinocytes; assay type: cell-based
Experimental: as §4

S. mutans c.i. = assay: MIC/MBC broth microdilution, S. mutans; assay type: cell-based, Streptococcus mutans
Experimental: as §1

fibroblasts (46BR.1N) = assay: LDH cytotoxicity test, fibroblasts; assay type: cell-based; conditions: 48 h
Experimental: as §2, §3

S. intemrdius c.i. = assay: MIC/MBC broth microdilution, S. intermedius; assay type: cell-based, Staphylococcus intermedius
Experimental: as §1

For Cc1ccccc1COC(=O)N[C@@H](CCCNC(=N)N)C(=O)N[C@@H](CC(C)C)C(=O)N[C@H](CNC(=O)/C=C/c1ccccc1)C(C)C [Compound A-210], which MIC (S. agalactiae ATCC 27956; H2O) is on record?
Its MIC is 16 µg/mL (≈ 24.6 µM).

And the MBC (S. agalactiae ATCC 27956; water additive DMSO)?
The MBC was 32 µg/mL (≈ 49.2 µM).

What about the MIC (S. agalactiae ATCC 27956; water additive DMSO) of the same compound?
The MIC was 16 µg/mL (≈ 24.6 µM).

What about the MIC (S. agalactiae ATCC 27956; water additive EtOH) of the same compound?
Its MIC is 32 µg/mL (≈ 49.2 µM).

What about the “cytotoxicity (LDH), in words” value ([1]; 50-150 μg/mL) of the same compound?
The value was “no negative effect at 50 μg/mL concentration”.

What about the “concentration at which cytotoxic effect starts” value ([1]; LDH) of the same compound?
The value was 100 µg/mL.

What about the MIC (S. pyogenes ATCC 19615; H2O) of the same compound?
The MIC was 32 µg/mL (≈ 49.2 µM).

What about the MIC (S. pyogenes ATCC 19615; water additive DMSO) of the same compound?
The MIC was 32 µg/mL (≈ 49.2 µM).

What about the MIC (S. pyogenes ATCC 19615; water additive EtOH) of the same compound?
Its MIC is 32 µg/mL (≈ 49.2 µM).

What about the MBC (S. schleiferi c.i.; H2O) of the same compound?
The MBC was 8 µg/mL (≈ 12.3 µM).

What about the MIC (S. schleiferi c.i.; H2O) of the same compound?
Its MIC is 4 µg/mL (≈ 6.16 µM).

What about the MBC (S. schleiferi c.i.; water additive DMSO) of the same compound?
Its MBC is 16 µg/mL (≈ 24.6 µM).

What about the MIC (S. schleiferi c.i.; water additive DMSO) of the same compound?
The MIC was 8 µg/mL (≈ 12.3 µM).

What about the MBC (S. schleiferi c.i.; water additive EtOH) of the same compound?
Its MBC is 8 µg/mL (≈ 12.3 µM).

What about the MIC (S. schleiferi c.i.; water additive EtOH) of the same compound?
Its MIC is 4 µg/mL (≈ 6.16 µM).

And the MIC (E. coli ATCC 25922; H2O)?
Its MIC is over 512 µg/mL.

What about the MIC (E. coli ATCC 25922; water additive DMSO) of the same compound?
The MIC was over 512 µg/mL.

What about the MIC (E. coli ATCC 25922; water additive EtOH) of the same compound?
Its MIC is over 512 µg/mL.

What about the MIC (S. aureus ATCC 43300; H2O) of the same compound?
Its MIC is 32 µg/mL (≈ 49.2 µM).

And the MIC (S. aureus ATCC 43300; water additive DMSO)?
The MIC was 32 µg/mL (≈ 49.2 µM).

And the MBC (S. aureus ATCC 43300; water additive EtOH)?
The MBC was 32 µg/mL (≈ 49.2 µM).

And the MIC (S. aureus ATCC 43300; water additive EtOH)?
The MIC was 16 µg/mL (≈ 24.6 µM).

And the MBC (P. vulgaris ATCC 6896; H2O)?
Its MBC is 256 µg/mL (≈ 394 µM).

And the MBC (P. vulgaris ATCC 6896; water additive DMSO)?
The MBC was 256 µg/mL (≈ 394 µM).

What about the MIC (S. cohnii c.i.; water additive DMSO) of the same compound?
The MIC was 32 µg/mL (≈ 49.2 µM).

What about the MIC (S. cohnii c.i.; water additive EtOH) of the same compound?
The MIC was 32 µg/mL (≈ 49.2 µM).

What about the MIC (P. aeruginosa ATCC 10145; H2O) of the same compound?
The MIC was 512 µg/mL (≈ 788 µM).

And the MIC (P. aeruginosa ATCC 10145; water additive DMSO)?
Its MIC is 512 µg/mL (≈ 788 µM).

And the MBC (P. aeruginosa ATCC 10145; water additive EtOH)?
Its MBC is 512 µg/mL (≈ 788 µM).

And the MIC (P. aeruginosa ATCC 10145; water additive EtOH)?
Its MIC is 256 µg/mL (≈ 394 µM).

And the “proliferation relative to control at 150 μg/mL (highest tested concentration)” value ([2]; 150 μg/mL)?
Its value is 50%.

What about the “effect on proliferation, in words” value ([2]; 48 and 72 h, 0.01–150 μg/mL) of the same compound?
The value was “negative impact”.

And the MBC (E. faecalis c.i.; H2O)?
Its MBC is 256 µg/mL (≈ 394 µM).

What about the MBC (E. faecalis c.i.; water additive DMSO) of the same compound?
Its MBC is 256 µg/mL (≈ 394 µM).

And the MBC (E. faecalis c.i.; water additive EtOH)?
Its MBC is 256 µg/mL (≈ 394 µM).

And the MIC (E. faecalis c.i.; water additive EtOH)?
The MIC was 32 µg/mL (≈ 49.2 µM).

What about the MIC ([3]; H2O) of the same compound?
The MIC was over 512 µg/mL.

And the MIC ([3]; water additive DMSO)?
The MIC was over 512 µg/mL.

What about the MIC ([3]; water additive EtOH) of the same compound?
The MIC was over 512 µg/mL.

What about the proliferation ([4]; 72 h) of the same compound?
Its proliferation is “less than 50%”.

What about the “proliferation relative to control at 150 μg/mL (highest tested concentration)” value ([4]; XTT, 150 μg/mL) of the same compound?
The value was 50%.

And the “effect on proliferation, in words” value ([4]; XTT, 48 and 72 h, 0.01–150 μg/mL)?
Its value is “negative impact”.

What about the MIC (S. mutans c.i.; H2O) of the same compound?
The MIC was over 512 µg/mL.

And the MIC (S. mutans c.i.; water additive DMSO)?
The MIC was over 512 µg/mL.

And the MIC (S. mutans c.i.; water additive EtOH)?
Its MIC is over 512 µg/mL.

What about the “cytotoxicity (LDH), in words” value (fibroblasts (46BR.1N); 50-150 μg/mL) of the same compound?
The value was “no negative effect at 50 μg/mL concentration”.

What about the “concentration at which cytotoxic effect starts” value (fibroblasts (46BR.1N); LDH) of the same compound?
Its value is 100 µg/mL.

And the MBC (S. intemrdius c.i.; H2O)?
The MBC was 16 µg/mL (≈ 24.6 µM).

And the MIC (S. intemrdius c.i.; H2O)?
The MIC was 16 µg/mL (≈ 24.6 µM).

And the MBC (S. intemrdius c.i.; water additive DMSO)?
Its MBC is 16 µg/mL (≈ 24.6 µM).

And the MIC (S. intemrdius c.i.; water additive DMSO)?
The MIC was 16 µg/mL (≈ 24.6 µM).

And the MBC (S. intemrdius c.i.; water additive EtOH)?
The MBC was 16 µg/mL (≈ 24.6 µM).

And the MIC (S. intemrdius c.i.; water additive EtOH)?
Its MIC is 16 µg/mL (≈ 24.6 µM).
